From US20050137261A1, “Method for treating inflammatory bowel diseases” (MEIJI DAIRIES CORPORATION, priority 2003, published 2005)

How the values were obtained:
[1] = system: dextran sodium sulfate (DSS) colitis; experiment: DSS colitis in mice: survival rate and HE-staining of the large intestine; type: in vivo, C57/BL6 Mice
Method: C57/BL6 Mice (female, 8 weeks old) were employed. They were bred under SPF conditions, and then used in the test. 2.5% Dextran sodium sulfate (DSS, MW 50,000) was added to drinking water (distilled water) for mice, and the mice were allowed to drink the resultant water freely for 7 days (induction of colitis). Subsequently, DHNA was administered to the mice in the following manner. DHNA was dissolved in dimethyl sulfoxide (DMSO) (0.1 g/0.5 mL). The resultant neat solution, along with ascorbic acid for stabilizing DHNA (1%), was added to drinking water (distilled water) for mice, and the mice were allowed to drink the resultant water freely for 7 days. DHNA concentration was 0.6 mg/kg or 2 mg/kg. Distilled water to which DMSO and ascorbic acid had been added in equal amounts was employed as a control group. Survival rate was that as determined for the mice on day 10 after starting administration of DHNA. The large intestine was removed from each mouse, and fixed with periodate-lysine-paraformaldehyde (PLP), whereby frozen slices were prepared. Through use of the thus-obtained frozen sections, immunohistochemical staining using labeled streptavidin-biotin (LSAB) and HE-staining were performed. In the immunohistochemical staining, anti-MAdCAM-1 and anti-β7integrin were used as primary antibodies and biotin-labeled FITC was employed as a secondary antibody.

[2] = system: β7 positive cells; experiment: Immunohistochemical staining (LSAB) of large intestine sections, DSS colitis, anti-β7integrin; type: in vivo, C57/BL6 Mice; conditions: large intestine frozen sections, DHNA administration group
Method: (§1) C57/BL6 Mice (female, 8 weeks old) were employed. They were bred under SPF conditions, and then used in the test.
(§2) 2.5% Dextran sodium sulfate (DSS, MW 50,000) was added to drinking water (distilled water) for mice, and the mice were allowed to drink the resultant water freely for 7 days (induction of colitis). Subsequently, DHNA was administered to the mice in the following manner.
(§3) DHNA was dissolved in dimethyl sulfoxide (DMSO) (0.1 g/0.5 mL). The resultant neat solution, along with ascorbic acid for stabilizing DHNA (1%), was added to drinking water (distilled water) for mice, and the mice were allowed to drink the resultant water freely for 7 days. DHNA concentration was 0.6 mg/kg or 2 mg/kg. Distilled water to which DMSO and ascorbic acid had been added in equal amounts was employed as a control group.
(§4) The large intestine was removed from each mouse, and fixed with periodate-lysine-paraformaldehyde (PLP), whereby frozen slices were prepared. Through use of the thus-obtained frozen sections, immunohistochemical staining using labeled streptavidin-biotin (LSAB) and HE-staining were performed. In the immunohistochemical staining, anti-MAdCAM-1 and anti-β7integrin were used as primary antibodies and biotin-labeled FITC was employed as a secondary antibody.

[3] = subject of milk intolerance; DHNA or its salts; taught by WO03/016544; cited from earlier work
[4] = system: Bifidobacterium bifidum; conditions: taught by WO03/016544; cited from earlier work
[5] = system: MAdCAM-1; experiment: Immunohistochemical staining (LSAB) of large intestine sections, DSS colitis, anti-MAdCAM-1; type: in vivo, C57/BL6 Mice; conditions: large intestine frozen sections, DHNA administration group
Method: as §1, §2, §3, §4

For `O=C(O)c1cc(O)c2ccccc2c1O` [DHNA, 1,4-dihydroxy-2-naphthoic acid], the Survival rate ([1]; day 10 after starting the test, DHNA 0.6 mg/kg or 2 mg/kg in drinking water for 7 days after 2.5% DSS for 7 days, versus control group) was “significantly high”, the “HE-staining findings: ulcer and erosion in the epithelium, cellular infiltration, submucosal thickening” value ([1]; large intestine, DHNA administration group versus control group) was “suppression of the above conditions was observed” and the “Development of DSS enteritis” value ([1]; overall conclusion, by suppressing infiltration of activated immunocytes) was “suppress development of DSS enteritis”. For the same compound, the “β7 positive cells (immunohistochemical staining)” value [2] was “reduced”, the “Abdominal discomfort after ingestion of milk” value [3] was “mitigate abdominal discomfort” and the “Proliferation of Bifidobacterium bifidum” value [4] was “stimulating proliferation”. For the same compound, the “Expression of adhesion molecule MAdCAM-1” value [5] was “suppressed”.
